The source of these data is patent US10004687B2 (priority 2005, dated 2018).

For series [1] the following is noted: animal studies to date; cited from earlier work.
Series [2] relates to Capan-1 pancreatic carcinoma cells. The series can be described thus: MTT proliferation/survival assay, 72 hours incubation. It is filed as cell-based. Particulars: Homo sapiens. The protocol:
(§1) Controls were exposed to 0.1% v/v DMSO. Proliferation and survival of the pancreatic cells were assessed by MTT assay, a standard colorimetric assay used to measure cell survival and proliferation (Mosman, 1983). MTT (3-[4,5-cimethylthiazol-2-yl]-2,5-diphenyl tetrazolium bromide) is cleaved by living cells to yield a dark blue formazan product. The color is quantitated by spectrophotometer and reflects cellular proliferation and survival. […] The control for each assay was exposed to 0.1% v/v DMSO.
(§2) MTT proliferation/survival assay was performed after 72 hours of incubation.
(§3) FIGS. 5-10 show graphs of the results of the assays using Bxpc-3, Capan-1, Capan-2, HS766-1 and ASPC-1 cell lines, respectively. […] The MTT assay was performed after pancreatic cells were exposed for 72 hours to each compound at concentrations ranging from 0 to 5 μg/ml.

The subject of series [3] is ASPC-1 pancreatic carcinoma cells. The series is described as above. Particulars: Homo sapiens, ASPC1, ASPC-1, MTT assay. It is filed as cell-based. The protocol: as §1, §2, §3
Series [4] concerns Capan-2 pancreatic carcinoma cells. The description is as above. It is filed as cell-based. Particulars: Homo sapiens, Capan-2, 72 h, CAPAN-2, MTT assay. The procedure: as §1, §2, §3
In general terms: Tetrazolium dyes change colour on reduction, which living cells bring about.

Series [5] deals with Bxpc-3 pancreatic carcinoma cells. Described as above. Particulars: Homo sapiens. It is filed as cell-based. The procedure:
as §1, §2, §3

The test system of series [6] is HS766-T pancreatic carcinoma cells. Described as above. It is filed as cell-based. Particulars: Hs766T. The procedure:
as §1, §2, §3

Series [7] deals with pancreatic BxPC-3 or HS766-T cells. The series can be described thus: Apoptosis assay, Annexin-V/Proopidium iodide staining (FACS analysis). It is filed as cell-based. The settings on record: concentrations equal to IC50 or IC90 of liposomal curcumin, 72 hours. The protocol:
Apoptosis assay was performed using either pancreatic BxPC-3 or HS766-T cells. […] After incubation for 72 hours, the cells were assayed using Annexin-V/Proopidium iodide staining (FACS analysis) to determine how much apoptosis had occurred.

For series [8] the following is noted: cited from earlier work.
For series [9], the system named is pancreatic Bxpc-3, Capan-1, Capan-2, HS766-T and ASPC-1 cells. The experiment in a line: MTT proliferation/survival assay, statements on all five pancreatic lines. It is filed as cell-based. The settings on record: seventy-two hours of exposure. The procedure:
as §1, §2, §3

In brackets after ≈: the same amount, converted by molar mass. Several values for one entry are separate records, joined by “and”; a condition that tells them apart may be missing. Identical values can stand only once. Like-named read-outs stand apart in the source and are kept apart here.

Regarding `COc1cc(C=CC(=O)CC(=O)C=Cc2ccc(O)c(OC)c2)ccc1O` [free curcumin, (E,E)-1,7-bis(4-hydroxy-3-methoxyphenyl)-1,6-heptadiene-3,5,-dione], the LD50 result in series [1] was “never reached an LD50”. Moreover, the IC50 in series [2] (read-out: 50% inhibitory concentration (IC50), Capan-1 cells, approximate) is roughly 5 µM; in series [2] (CAPAN-1, MTT assay, 72 hours incubation, read-out: IC50), 2 µg/mL and 5.4 µM; in [3], 4 µg/mL and 10.8 µM; in series [4], 17 µg/mL (≈ 46.1 µM); in series [5] (read-out: 50% inhibitory concentration (IC50), BxPC-3 cells, approximate), roughly 5 µM; in series [5] (BXPC-3, MTT assay, 72 hours incubation, read-out: IC50) it was 2 µg/mL and 5.4 µM. For the same compound, the IC50 in [6] was 2.6 µg/mL and 7 µM. Also, the IC90 was 5 µg/mL and 13.5 µM in series [2] (CAPAN-1, MTT assay, 72 hours incubation, read-out: IC90); roughly 14 µM in series [2] (Capan-1 cells, approximate, read-out: 90% inhibitory concentration (IC90)); 10 µg/mL and 27 µM in series [3]; 35 µg/mL (≈ 95 µM) in series [4]; 5 µg/mL and 13.5 µM in series [5] (BXPC-3, MTT assay, 72 hours incubation, read-out: IC90); roughly 14 µM in series [5] (BxPC-3 cells, approximate, read-out: 90% inhibitory concentration (IC90)). For the same compound, the IC90 in series [6] was 8 µg/mL and 21.6 µM. In addition, the apoptosis after treatment entry in series [7] is “dose-related apoptosis”. Moreover, the “solubility in ethanol, alkalis, ketones, acetic acid and chloroform” value in series [8] is listed as “soluble”. For the same compound, the solubility in water result in [8] (water) is “insoluble”. Also, the “pancreatic cell growth (MTT)” value in [9] is given as “inhibited pancreatic cell growth of all five lines tested in a concentration-dependent manner”.
